In PMC8042910, “Adiponectin-mimetic novel nonapeptide rescues aberrant neuronal metabolic-associated memory deficits in Alzheimer’s disease” (Molecular Neurodegeneration, 2021):
Residues, ends and D or L forms follow the SMILES beside them.

Columns and labels:
AdipoR1/p-AMPK signaling [1] = assay: AdipoR1/p-AMPK signaling in in vitro AD models (immunoblot, ELISA, AMPK assay); type: cell-based, human; settings: 10 μM, 12 h
Experimental: Human neuroblastoma SH-SY5Y cells were seeded (in 6-well culture plates for immunoblotting and in chamber slides for immunofluorescence) in DMEM (Dulbecco’s modified Eagle medium) containing 10% fetal bovine serum (FBS) and 1% antibiotics (penicillin-streptomycin) and incubated at 37 °C in humidified air containing 5% CO2. Once the cells reached 70–80% confluence, the cells were transfected using the pCAX vector containing the APPswe/ind gene using Lipofectamine 3000 (Life Technologies) according to the provider’s protocols. […]
SH-SY5Y (2×10^4/ml) cells used for ELISA and AMPK assays were cultured in 35-mm dishes in the presence of culture medium of DMEM containing FBS (10%) and antibiotics (1%) at 37°C in humidified air containing 5% CO2 to 70-75% confluences. […] Seventy-two hours after transfections, cells were treated with Os-pep (10 µM) for 12 h and cell lysates were collected and analyzed using ELISAs and immunoassays, as appropriate.
The AdipoR1 expressions were measured in the brain homogenates from APP/PS1 and Adipo-^/- mice and in lysates from APPswe/ind-overexpressed SH-SY5Y cells transfected with the AdipoR1 siRNA and treated Os-pep (10 µM) in vitro using the mouse and human AdipoR1 ELISA kits, accordingly to the provider’s instructions (MyBioSource). […]

AdipoR1/p-AMPK signaling [2] = assay: AdipoR1/p-AMPK signaling in mouse brain (immunoblot); type: in vivo; settings: 5 μg/g, i.p., alternating days for 45 days
Experimental: (§1) Os-pep was dissolved in double-deionized distilled water and then prepared in normal saline to obtain the final administered concentration. The AβO, APP/PS1, Adipo^−/− and WT mice were injected i.p. with Os-pep at a dosage of 5 μg/g on alternating days for 45 days. WT, Veh-injected transgenic-APP/PS1 and Adipo^−/− mice were injected with the same volume of double-deionized water and normal saline. The WT control and sham mice as well as the Veh-injected AβO, APP/PS1, Adipo^−/− and HFD mice received the same volume of double-deionized distilled water or normal saline.
(§2) The protein concentrations of the homogenates of mouse brain tissue and cell lysates in vitro were measured using a Bio-Rad protein assay kit (Bio-Rad Laboratories, Hercules, CA), and immunoblotting was performed as we previously described, using primary antibodies (detailed information described in the supplementary Table 1). Western blotting membranes have been cut prior to original western blot images and original western blot images are available at supplementary material.

p-PI3K/Akt/GSK3β (Ser 9) = assay: Downstream insulin signaling in mouse brain, immunoblot; type: in vivo; settings: AβO-treated, APP/PS1 and Adipo−/− mice, 5 μg/g, i.p., alternating days for 45 days
Experimental: as §1, §2

[3] = test system: pre- and postsynaptic protein markers; assay: Pre- and postsynaptic protein markers in mouse brain, immunoblot; type: in vivo; settings: 5 μg/g, i.p., alternating days for 45 days
Experimental: as §1, §2

Synap and PSD95 = Synap and PSD95 in APPswe/ind-overexpressing SH-SY5Y cells, immunoblot; type: cell-based, human; settings: Os-pep 10 μM
Experimental: Human neuroblastoma SH-SY5Y cells were seeded (in 6-well culture plates for immunoblotting and in chamber slides for immunofluorescence) in DMEM (Dulbecco’s modified Eagle medium) containing 10% fetal bovine serum (FBS) and 1% antibiotics (penicillin-streptomycin) and incubated at 37 °C in humidified air containing 5% CO2. Once the cells reached 70–80% confluence, the cells were transfected using the pCAX vector containing the APPswe/ind gene using Lipofectamine 3000 (Life Technologies) according to the provider’s protocols. AdipoR1 siRNA (h) (SC-60123) and AMPK siRNA (h) (SC-45312) (Santa Cruz Biotechnology, Inc.) were used at a concentration of 10 μM per transfection and expressed for 72 h according to the manufacturer’s protocol (Santa Cruz Biotechnology, Inc.). A negative siRNA (Ambion, Thermo Fisher Scientific) was used as a control. Seventy-two hours after the transfections, the cells were exposed to Os-pep (10 μM) for 12 h and then subjected to immunoblotting and immunofluorescence analyses.
Human neuroblastoma SH-SY5Y cells were treated with 1 µM of insulin for 48 h to produce intrinsic insulin-resistant human neuroblastoma (SH-SY5YIR) cells. […]

[4] = test system: activated caspase-3 and cleaved PARP-1; assay: Apoptotic and neurodegenerative markers in APP/PS1 mouse brain, immunoblot; type: in vivo; settings: APP/PS1 mice, 5 μg/g, i.p., alternating days for 45 days, n = 8/group
Experimental: as §2

[5] = Body weight measurements of the mice; type: in vivo, mouse; settings: APP/PS1, HFD and Adipo−/− mice vs Veh-treated, 5 μg/g, i.p., alternating days for 45 days, n = 13/group
Experimental: We monitored and weighed the mice three times per week to examine the effect of Os-pep dosage regimen (5 µg/g, i.p., on alternating days for 45 days) on the animals’ body weights. At the completion of the treatment, we calculated the average change in the body weight of the mice. At the completion of the treatments and behavioral experiments, blood samples were collected by cardiac puncture of the right atrium. The serum was collected from whole blood by centrifugation (3000 rpm for 10 min) at room temperature and was stored at -20 °C until it was processed for biochemical analyses by SCL Labs (Seoul Medical Science Institute) to evaluate various metabolic parameters, e.g., glucose (Glu), free fatty acids (FFA), total cholesterol (TC), triglycerides (TG), high density lipoprotein (HDL) and low density lipoprotein (LDL) levels.

C[C@@H](O)[C@H](NC(=O)[C@@H]1CCCN1C(=O)CNC(=O)[C@H](CS)NC(=O)[C@@H]1CCCN1C(=O)CNC(=O)[C@H](CCC(N)=O)NC(=O)[C@@H](NC(=O)[C@@H](N)CS)[C@@H](C)O)C(=O)O [Os-pep] (H-CTQGPCGPT-OH; N-terminus and C-terminus assumed)
AdipoR1/AMPK signaling with AdipoR1 knockdown (AdipoR1/p-AMPK signaling [1]; APPswe/ind SH-SY5Y with AdipoR1 siRNA, ELISA and AMPK assay): did not promote the stimulation of AdipoR1/AMPK signaling
neuronal AdipoR1/p-AMPK signaling (AdipoR1/p-AMPK signaling [1]; AβO-treated and human APPswe/ind-overexpressing SH-SY5Y cells): significantly increased neuronal AdipoR1/p-AMPK signaling
AdipoR1/p-AMPK signaling, AβO-injected mice (AdipoR1/p-AMPK signaling [2]; vs AβO-injected mice without Os-pep): significantly increased AdipoR1/p-AMPK signaling
AdipoR1/p-AMPK signaling, APP/PS1 mice (AdipoR1/p-AMPK signaling [2]; vs Veh-treated APP/PS1): remarkably increased AdipoR1/p-AMPK signaling
AdipoR1/AMPK levels, Adipo−/− mice (AdipoR1/p-AMPK signaling [2]; vs group without Os-pep): significantly increased AdipoR1/AMPK levels
p-PI3K/Akt/GSK3β (Ser 9) levels (p-PI3K/Akt/GSK3β (Ser 9)): reversed the reduction
pre- and postsynaptic protein levels ([3]; AβO-treated, APP/PS1 and Adipo−/− mice): remarkably increased
effects on pre- and postsynaptic markers, Os-pep alone ([3]; WT normal mice): did not have any detrimental effects
Synap and PSD95 expression with AdipoR1 siRNA (Synap and PSD95; APPswe/ind-overexpressing SH-SY5Y cells exposed to AdipoR1 siRNA): did not restore or increase
Synap and PSD95 expression (Synap and PSD95; APPswe/ind-overexpressing SH-SY5Y cells): restored and significantly increased
activated caspase-3 and cleaved PARP-1 levels [4]: significantly decreased
fold-increase in body weight [5]: smaller fold-increase in the body weight
